Test results taken from BindingDB's records for doi:10.1021/jm8011905 (National Taiwan University, 2009).

Biological target: Genome polyprotein (Hepatitis C virus genotype 1b (isolate Taiwan), UniProt P29846)
Test: Fluorescence Resonant Energy Transfer (FRET) Helicase Assay
Details: pH 7; 22 °C
Procedure: The enzyme was assayed the DNA helicase activity by using DNA substrate (annealed BHQ1-labeled release strand and FITC-labeled template strand) in the presence of test compound. The substrate was monitored by the fluorescence quenching of FITC. The assay mixture was added to a 384-well microplate and monitored continuously at an excitation of 485 nm and an emission of 518 nm using a Fluoroskan Ascent microplate fluorescence reader (LabSystems, VA). The original data were normalized by the formula of relative helicase activity (%). When the inhibition of helicase activity was more than 50% at a concentration of 100 uM, the IC50 values were determined by curve fitting using SigmaPlot2000 of logistic with three parameters.

Chain of Genome polyprotein (P29846 1027-1657 limits assumed): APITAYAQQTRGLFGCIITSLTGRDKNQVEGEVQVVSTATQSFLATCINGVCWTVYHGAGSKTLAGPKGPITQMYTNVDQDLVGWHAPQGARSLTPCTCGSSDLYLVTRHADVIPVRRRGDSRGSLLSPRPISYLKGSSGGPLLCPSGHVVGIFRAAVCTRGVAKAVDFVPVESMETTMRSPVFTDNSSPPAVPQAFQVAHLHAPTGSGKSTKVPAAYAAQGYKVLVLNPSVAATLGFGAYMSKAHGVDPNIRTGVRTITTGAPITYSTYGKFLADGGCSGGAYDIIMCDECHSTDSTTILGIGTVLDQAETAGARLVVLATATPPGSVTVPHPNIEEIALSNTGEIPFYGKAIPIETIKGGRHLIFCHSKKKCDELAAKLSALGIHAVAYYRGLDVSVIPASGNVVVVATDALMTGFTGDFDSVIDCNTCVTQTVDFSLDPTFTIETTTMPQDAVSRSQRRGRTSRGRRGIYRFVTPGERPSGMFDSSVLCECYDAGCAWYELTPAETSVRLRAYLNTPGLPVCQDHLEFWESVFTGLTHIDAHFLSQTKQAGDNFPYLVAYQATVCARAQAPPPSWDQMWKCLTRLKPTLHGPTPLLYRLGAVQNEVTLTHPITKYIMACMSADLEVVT

In the case of O=S(=O)(O)c1ccc(Nc2ccc([C+](c3ccc(Nc4cccc(S(=O)(=O)O)c4)cc3)c3ccc(Nc4cccc(S(=O)(=O)O)c4)cc3)cc2)cc1 [BHT, 1], the IC50 is reported as 40 µM.
